Patent US20250059172A1, “INDAZOLE COMPOUND AND PHARMACEUTICAL” (NIPPON SHINYAKU CO., LTD., priority 2021, published 2025)
Where a name gives a salt, the structure may show the parent alone.

Legend:
human A549 cells = experiment: Inhibition test of PGE2 production using human A549 cells; assay type: cell-based; conditions: IL-1β stimulated A549 cells, 24 h, PGE2 by HTRF, read-out: A549 cell inhibition of PGE2 production IC50
In short: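 A549 cells were preincubated 60 min with compound in RPMI/3% FBS (0.1% DMSO final), then stimulated with IL-1β (5 ng/well) for 24 h at 37°C. PGE2 was measured by HTRF and PGF2a by EIA; activity was normalized to stimulated minus unstimulated controls, and IC50 derived.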

human mPGES-1 = human mPGES-1 (Homo sapiens (Human), UniProt O14684); experiment: mPGES-1 inhibitory activity test; assay type: biochemical; conditions: for IC50: microsomes of CHO-K1 cells expressing human mPGES-1, PGH2 1 μM, PGE2 by HTRF, read-out: mPGES-1 inhibition (IC50 nM); for inhibition at 0.01 µM: 10 nM test compound; for inhibition at 0.1 µM: 100 nM test compound
Chain of human mPGES-1 (O14684 whole entry): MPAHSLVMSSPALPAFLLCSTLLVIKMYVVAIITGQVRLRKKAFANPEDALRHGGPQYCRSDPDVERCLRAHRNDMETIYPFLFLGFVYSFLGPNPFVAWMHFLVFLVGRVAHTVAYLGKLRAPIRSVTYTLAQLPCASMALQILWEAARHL
In short: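 PGE2 formation was quantified by HTRF and reported as percent inhibition at 10 and 100 nM compound or as IC50. The 60-second reaction at 4° C used 1 μM PGH2, after a 20-minute 4° C preincubation of compound (1% DMSO final) with glutathione-supplemented (2.5 mM, pH 7.4) microsomes. The microsomes were from transiently transfected CHO-K1 cells expressing human mPGES-1.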

IC50 (human A549 cells) [nM]	IC50 (human mPGES-1) [nM]	inhibition at 0.01 µM (human mPGES-1) [%]	inhibition at 0.1 µM (human mPGES-1) [%]	SMILES
884	175			CC(=O)N1CCC(n2ncc3c(NC(=O)c4cc(CNC(=O)C(C)(C)C)ccc4Cl)cccc32)CC1 [Example 106, N-[1-(1-acetylpiperidin-4-yl)-1H-indazol-4-yl]-2-chloro-5-{[(2,2-dimethylpropanoyl)amino]methyl}benzamide]
399	10			CC(C)(C)C(=O)NCc1ccc(Cl)c(C(=O)Nc2cccc3c2cnn3CCN2CCOCC2)c1 [Example 107, 2-Chloro-5-{[(2,2-dimethylpropanoyl)amino]methyl}-N-{1-[2-(morpholin-4-yl)ethyl]-1H-indazol-4-yl}benzamide hydrochloride]
20.6	11.1			CC(C)(C)C(=O)NCc1ccc(Cl)c(C(=O)Nc2cccc3c2cnn3CCCCc2ccccc2)c1 [Example 108, 2-Chloro-5-{[(2,2-dimethylpropanoyl)amino]methyl}-N-[1-(4-phenylbutyl)-1H-indazol-4-yl]benzamide]
119	2.04			O=C(Nc1cccc2c1cnn2Cc1ccccc1)c1cc(CNC(=O)C2CC2)ccc1Cl [Example 109, N-(1-benzyl-1H-indazol-4-yl)-2-chloro-5-{[(cyclopropylcarbonyl)amino]methyl}benzamide]
40.6	5.5			Cn1ncc2c(NC(=O)c3cc(CNC(=O)C(C)(C)C)ccc3Cl)cccc21 [Example 111, 2-Chloro-5-{[(2,2-dimethylpropanoyl)amino]methyl}-N-(1-methyl-1H-indazol-4-yl)benzamide]
91.1	12.9			Cn1ncc2c(NC(=O)c3cc(CNC(=O)C4CC4)ccc3Cl)cccc21 [Example 112, 2-Chloro-5-{[(cyclopropylcarbonyl)amino]methyl}-N-(1-methyl-1H-indazol-4-yl)benzamide]
20.2	1.2			CCn1ncc2c(NC(=O)c3cc(CNC(=O)C(C)(C)C)ccc3Cl)cccc21 [Example 113, 2-Chloro-5-{[(2,2-dimethylpropanoyl)amino]methyl}-N-(1-ethyl-1H-indazol-4-yl)benzamide]
1.9		87		CC(C)(C)CC(=O)NCc1ccc(Cl)c(C(=O)Nc2cccc3c2cnn3-c2ccc(OC(F)(F)F)cc2)c1 [Example 114, 2-Chloro-5-{[(3,3-dimethylbutanoyl)amino]methyl}-N-{1-[4-(trifluoromethoxy)phenyl]-1H-indazol-4-yl}benzamide]
1.2		61		O=C(Nc1cccc2c1cnn2-c1ccc(OC(F)(F)F)cc1)c1cc(CNC(=O)C2CCCC2)ccc1Cl [Example 115, 2-Chloro-5-{[(cyclopentylcarbonyl)amino]methyl}-N-{1-[4-(trifluoromethoxy)phenyl]-1H-indazol-4-yl}benzamide]
0.6		68	100	O=C(Nc1cccc2c1cnn2-c1ccc(OC(F)(F)F)cc1)c1cc(CNC(=O)C2(C(F)(F)F)CC2)ccc1Cl [Example 116, 2-Chloro-N-{1-[4-(trifluoromethoxy)phenyl]-1H-indazol-4-yl}-5-[({[1-(trifluoromethyl)cyclopropyl]carbonyl}amino)methyl]benzamide]
10		48		CC(C)(C)CC(=O)NCc1ccc(Cl)c(C(=O)Nc2cccc3c2cnn3-c2cccc(OC(F)(F)F)c2)c1 [Example 121, 2-Chloro-5-{[(3,3-dimethylbutanoyl)amino]methyl}-N-{1-[3-(trifluoromethoxy)phenyl]-1H-indazol-4-yl}benzamide]
2.9		100		O=C(Nc1cccc2c1cnn2-c1cccc(OC(F)(F)F)c1)c1cc(CNC(=O)C2CCCC2)ccc1Cl [Example 122, 2-Chloro-5-{[(cyclopentylcarbonyl)amino]methyl}-N-{1-[3-(trifluoromethoxy)phenyl]-1H-indazol-4-yl}benzamide]
5.1		98		O=C(Nc1cccc2c1cnn2-c1cccc(OC(F)(F)F)c1)c1cc(CNC(=O)C2(C(F)(F)F)CC2)ccc1Cl [Example 123, 2-Chloro-N-{1-[3-(trifluoromethoxy)phenyl]-1H-indazol-4-yl}-5-[({[1-(trifluoromethyl)cyclopropyl]carbonyl}amino)methyl]benzamide]
9.8		100		O=C(Nc1cccc2c1cnn2-c1cccc(OC(F)(F)F)c1)c1cc(CNS(=O)(=O)C2CC2)ccc1Cl [Example 126, 2-Chloro-5-{[(cyclopropylsulfonyl)amino]methyl}-N-{1-[3-(trifluoromethoxy)phenyl]-1H-indazol-4-yl}benzamide]
4.7		64		Cc1ccc(-n2ncc3c(NC(=O)c4cc(CNC(=O)CC(C)(C)C)ccc4Cl)cccc32)cc1Cl [Example 127, 2-Chloro-N-[1-(3-chloro-4-methylphenyl)-1H-indazol-4-yl]-5-{[(3,3-dimethylbutanoyl)amino]methyl}benzamide]
1.2		67		Cc1ccc(-n2ncc3c(NC(=O)c4cc(CNC(=O)C5(C(F)(F)F)CC5)ccc4Cl)cccc32)cc1Cl [Example 129, 2-Chloro-N-[1-(3-chloro-4-methylphenyl)-1H-indazol-4-yl]-5-[({[1-(trifluoromethyl)cyclopropyl]carbonyl}amino)methyl]benzamide]
1.5		86		Cc1ccc(-n2ncc3c(NC(=O)c4cc(CNS(=O)(=O)C5CC5)ccc4Cl)cccc32)cc1Cl [Example 132, 2-Chloro-N-[1-(3-chloro-4-methylphenyl)-1H-indazol-4-yl]-5-{[(cyclopropylsulfonyl)amino]methyl}benzamide]
6		61	100	CC(C)(C)CC(=O)NCc1ccc(Cl)c(C(=O)Nc2cccc3c2cnn3-c2cccc(OC(F)F)c2)c1 [Example 138, 2-Chloro-N-{1-[3-(difluoromethoxy)phenyl]-1H-indazol-4-yl}-5-{[(3,3-dimethylbutanoyl)amino]methyl}benzamide]
59.4		54	100	O=C(Nc1cccc2c1cnn2-c1cccc(OC(F)F)c1)c1cc(CNC(=O)C2(O)CC2)ccc1Cl [Example 141, 2-Chloro-N-{1-[3-(difluoromethoxy)phenyl]-1H-indazol-4-yl}-5-({[(1-hydroxycyclopropyl)carbonyl]amino}methyl)benzamide]
17.4		92	100	CC(C)(CO)C(=O)NCc1ccc(Cl)c(C(=O)Nc2cccc3c2cnn3-c2cccc(OC(F)F)c2)c1 [Example 143, 2-Chloro-N-{1-[3-(difluoromethoxy)phenyl]-1H-indazol-4-yl}-5-{[(3-hydroxy-2,2-dimethylpropanoyl)amino]methyl}benzamide]
1.8		73	100	O=C(Nc1cccc2c1cnn2-c1cccc(OC(F)F)c1)c1cc(CNS(=O)(=O)C2CC2)ccc1Cl [Example 144, 2-Chloro-5-{[(cyclopropylsulfonyl)amino]methyl}-N-{1-[3-(difluoromethoxy)phenyl]-1H-indazol-4-yl}benzamide]
